Consider one compound from PMC8880564, “Design, Synthesis, and Biological Evaluation of a Novel VEGFR-2 Inhibitor Based on a 1,2,5-Oxadiazole-2-Oxide Scaffold with MAPK Signaling Pathway Inhibition” (Pharmaceuticals, 2022).

Assay in all cases: NCI-60 one-dose SRB screening
What all share (type): cell-based

Test [1] concerns RXF 393. Particulars: Homo sapiens, RXF 393, Renal Cancer, 10 µM one dose, 48 h, read-out: growth percentage.
For test [2], the system named is EKVX. Particulars: Homo sapiens, Non-Small Cell Lung Cancer, 10 µM one dose, 48 h, read-out: growth percentage.
The test system of test [3] is LOX IMVI. Particulars: Homo sapiens, Melanoma, 10 µM one dose, 48 h, read-out: growth percentage.
For test [4], the system named is OVCAR-3. The settings on record: Homo sapiens, OVCAR-3, Ovarian Cancer, 10 µM one dose, 48 h, read-out: growth percentage.
The subject of test [5] is HOP-92. Particulars: Homo sapiens, HOP-92, Non-Small Cell Lung Cancer, 10 µM one dose, 48 h, read-out: growth percentage.
Test [6] relates to NCI-H23. The settings on record: Homo sapiens, NCI-H23, Non-Small Cell Lung Cancer, 10 µM one dose, 48 h, read-out: growth percentage.
The test system of test [7] is NCI/ADR-RES. The settings on record: Homo sapiens, Ovarian Cancer, 10 µM one dose, 48 h, read-out: growth percentage.
In test [8] the test system is NCI-H522. The settings on record: Homo sapiens, NCI-H522, Non-Small Cell Lung Cancer, 10 µM one dose, 48 h, read-out: growth percentage.
Test [9] relates to A498. The settings on record: Homo sapiens, A498, Renal Cancer, 10 µM one dose, 48 h, read-out: growth percentage.
Test [10] concerns SK-MEL-5. The settings on record: Homo sapiens, SK-MEL-5, Melanoma, 10 µM one dose, 48 h, read-out: growth percentage.
The test system of test [11] is TK-10. The settings on record: Homo sapiens, TK-10, Renal Cancer, 10 µM one dose, 48 h, read-out: growth percentage.
The test system of test [12] is CAKI-1. Particulars: Homo sapiens, CAKI-1, Renal Cancer, 10 µM one dose, 48 h, read-out: growth percentage.
In test [13] the test system is IGROV1. The settings on record: Homo sapiens, IGROV-1, IGROV1, Ovarian Cancer, 10 µM one dose, 48 h, read-out: growth percentage.
The subject of test [14] is MCF7. Particulars: Homo sapiens, MCF7, Breast Cancer, 10 µM one dose, 48 h, read-out: growth percentage.
Test [15] concerns ACHN. The settings on record: Homo sapiens, Renal Cancer, 10 µM one dose, 48 h, read-out: growth percentage.
The test system of test [16] is COLO 205. Particulars: Homo sapiens, COLO 205, Colon Cancer, 10 µM one dose, 48 h, read-out: growth percentage.
The subject of test [17] is T-47D. Particulars: Homo sapiens, T47D, Breast Cancer, 10 µM one dose, 48 h, read-out: growth percentage.
The subject of test [18] is MDA-MB-468. The settings on record: Homo sapiens, MDA-MB-468, Breast Cancer, 10 µM one dose, 48 h, read-out: growth percentage.
The test system of test [19] is NCI-H460. The settings on record: Homo sapiens, NCI-H460, Non-Small Cell Lung Cancer, 10 µM one dose, 48 h, read-out: growth percentage.
Test [20] relates to UACC-257. Particulars: Homo sapiens, UACC-257, Melanoma, 10 µM one dose, 48 h, read-out: growth percentage.
The test system of test [21] is K-562. Particulars: Homo sapiens, K562, K-562, Leukemia, 10 µM one dose, 48 h, read-out: growth percentage.
The test system of test [22] is UACC-62. Particulars: Homo sapiens, UACC-62, Melanoma, 10 µM one dose, 48 h, read-out: growth percentage.

For `Nc1ccc(NCc2c(-c3ccccc3)no[n+]2[O-])cc1` [compound 11, 3-(((4-aminophenyl)amino)methyl)-4-phenyl-1,2,5-oxadiazole 2-oxide], the activity at 10 µM in test [1] was 134%; in test [2], 109%; in test [3], 107%; in [4], 111%; in [5] it was 116%; in [6], 105%. For the same compound, the activity at 10 µM in test [7] worked out at 104%; in test [8] it was 93.5%; in test [9], 108%; in [10], 112%; in test [11], 156%; in test [12], 108%. The activity at 10 µM in test [13] amounted to 88.7%; in test [14], 85.5%; in test [15], 104%; in [16], 121%; in test [17], 101%; in test [18] it was 85.3%. The activity at 10 µM worked out at 101% in [19], 99.2% in test [20], 99.1% in [21] and 95.5% in [22].
